Laboratory results taken from PMC166128 (BMC Infectious Diseases, 2003).
Where two headings read alike, the source gives them in different places.

What was measured:
[1] = test system: VV, VSV, HSV-1, HSV-2, Coxsackie virus B4 and poliovirus-1; details: cited from earlier work
[2] = test system: vaccinia virus IHD-J (EEV); type: cell-based
CV-1 cells = assay: Cytostatic activity; details: CV-1 cells seeded at 3.5 × 10^3 cells/well; 24 h incubation; cells counted
vaccinia virus WR strain [3] = type: cell-based; details: 16 h
HeLa S3 cells = assay: Cell proliferation assay, 3H-thymidine uptake; details: 2 days + 16 h, single experiment
[4] = test system: vaccinia virus Western Reserve (WR) strain; type: cell-based
vaccinia virus WR strain [5] = type: cell-based
vaccinia virus = type: cell-based
camelpox = details: read-out: EC50 (camelpox); cited from earlier work
monkeypox = details: read-out: EC50 (monkeypox); cited from earlier work
cowpox = details: read-out: EC50 (cowpox); cited from earlier work
vaccinia = details: read-out: EC50 (vaccinia); cited from earlier work
[6] = test system: vaccinia virus International Health Department-J (IHD-J) strain; type: cell-based

Molecule	EC50 IHD-J (EEV) CV-1 [2] [µg/mL]	CC50 Cytostatic activity (CV-1 cells) [µg/mL]	% inhibition (vaccinia virus WR strain [3]; 25 µg/mL) [%]	titer (vaccinia virus WR strain [3]; 25 µg/mL)	% inhibition (vaccinia virus WR strain [3]; 50 µg/mL) [%]	titer (vaccinia virus WR strain [3]; 50 µg/mL)	CC50 Cell proliferation (HeLa S3 cells) [µg/mL]	% inhibition (vaccinia virus WR strain [5]; 25 µg/mL) [%]	titer (vaccinia virus WR strain [5]; 25 µg/mL)	% inhibition (vaccinia virus WR strain [5]; 50 µg/mL) [%]	titer (vaccinia virus WR strain [5]; 50 µg/mL)	% inhibition (vaccinia virus; 25 µg/mL) [%]	titer (vaccinia virus; 25 µg/mL)	% inhibition (vaccinia virus; 50 µg/mL) [%]	titer (vaccinia virus; 50 µg/mL)	further results
O=C(O)c1ccc(-c2c3nc(c(-c4ccc(C(=O)O)cc4)c4ccc([nH]4)c(-c4ccc(C(=O)O)cc4)c4nc(c(-c5ccc(C(=O)O)cc5)c5ccc2[nH]5)C=C4)C=C3)cc1 [TPPC, meso-tetra(4-carboxyphenyl)porphyrin]	–	–	–	–	–	–	–	–	–	–	–	–	–	–	–	EC50s for VV, VSV, HSV-1, HSV-2, Coxsackie virus B4 and poliovirus-1 [1]: ≥ 20 µg/mL
C=CC1=C(C)c2cc3[n-]c(cc4nc(cc5[n-]c(cc1n2)c(C)c5C=C)C(C)=C4CCC(=O)O)c(CCC(=O)O)c3C.[Zn+2] [ZnPPIX, zinc protoporphyrin]	38 ± 7.8	370	65 ± 0.3	7.2 × 10^5 pfu/mL	70 ± 4	6.4 × 10^5 pfu/mL	25	98	2.5 × 10^5 pfu/mL	99	1.0 × 10^5 pfu/mL	92 ± 1	2.1 × 10^4 pfu/mL	99 ± 7	3.2 × 10^3 pfu/mL	EC50 WR CV-1 [4]: 15 ± 12 µg/mL
Nc1ccn(C[C@@H](CO)OCP(=O)(O)O)c(=O)n1 [cidofovir]	–	–	–	–	–	–	–	–	–	–	–	–	–	–	–	EC50 (camelpox): 2.3 µM; EC50 (monkeypox): 27 µM; EC50 (cowpox): 58 µM; EC50 (vaccinia): 46.2 µM
Fe meso-tetrakis(3,4-disulfonatomesityl)porphyrin [FeTMPS]	–	–	–	–	–	–	–	–	–	–	–	–	–	–	–	EC50s for VV, VSV, HSV-1, HSV-2, Coxsackie virus B4 and poliovirus-1 [1]: ≥ 20 µg/mL
copper hematoporphyrin [CuHPIX]	1.1 ± 0.4	–	33 ± 9	1.3 × 10^6 pfu/mL	71 ± 4	6.3 × 10^5 pfu/mL	36	93	1.1 × 10^6 pfu/mL	97	4.5 × 10^5 pfu/mL	80 ± 2	5.0 × 10^4 pfu/mL	91 ± 2	2.3 × 10^4 pfu/mL	EC50 IHD-J (EEV) BSC-40 [2]: 0.32 ± 0.13 µg/mL; EC50 IHD-J CV-1 [6]: 1.5 ± 0.4 µg/mL; EC50 WR BSC-40 [4]: 0.03 ± 0.01 µg/mL; EC50 WR CV-1 [4]: 7.8 ± 0.9 µg/mL
sulfonated 5,10,15,20-tetra-naphthalen-1-yl-porphyrin [TNapPS]	1.0 ± 0.1	400	73 ± 16	3.5 × 10^5 pfu/mL	92 ± 1	1.0 × 10^5 pfu/mL	–	98	3.5 × 10^5 pfu/mL	98	2.6 × 10^5 pfu/mL	87 ± 5	3.3 × 10^4 pfu/mL	95 ± 2	1.3 × 10^4 pfu/mL	–
sulfonated copper phthalocyanine [CuPcS(3444)]	8.2 ± 1.3	> 1000	49 ± 21	9.3 × 10^5 pfu/mL	59 ± 2	8.3 × 10^5 pfu/mL	> 500	60	6.3 × 10^6 pfu/mL	74	4.1 × 10^6 pfu/mL	92 ± 3	2.1 × 10^4 pfu/mL	90 ± 2	2.4 × 10^4 pfu/mL	EC50 IHD-J (EEV) BSC-40 [2]: 50 ± 7 µg/mL; EC50 IHD-J CV-1 [6]: 14 ± 5.3 µg/mL
